Format: physicochemical
Conditions: pH 7.4
Experimental: The ORC-active agent combinations of example 2 and 3 can be suspended in neutral buffers at pH 7.4 at 37° C. to simulate body conditions for the purpose of studying the release of the drug in the buffer (in vitro). The test samples released Marcaine in the buffer while degrading. The ORC matrix is expected to degrade completely in 3-5 days if needed, degradation can be accelerated (terminal samples) by adding sodium bicarbonate base to the buffer solution. More particularly, for example, water bath is pre-heated to 37° C. Test samples of the ORC-Marcaine are cut into small pieces and the samples (in the range of 0.05g-01 g) are weighed and placed in labeled vials. The desired amount of buffer (e.g., 100, 50, 25 or 10 times, by weight, of the test sample) is added. For terminal samples, sufficient sodium bicarbonate is added to make a 0.15 M solution. The vials are placed in the pre-heated water bath for the desired period of time (approximately 10 min-120 hours).

oxidized regenerated cellulose [ORC matrix]
time to complete degradation: 3 to 5 days

From patent US20030118651A1, “Bio-compatible means for controlled drug delivery to tissue and method of use” (priority 2001, published 2003)
